Assay results reported in ChEMBL document CHEMBL1130779, “Synthesis and pharmacological activity of the stereoisomers of GP-88, a propafenone-type modulator of multidrug resistance” (Bioorg Med Chem Lett, 1998).

Tested on: CCRF-CEM/VCR-1000
Experiment: MDR-modulating activity as a measure to inhibit P-glycoprotein (PGP) mediated transmembrane transport in human T-lymphoblast cell line CEM vcr 1000 using the daunomycin efflux assay
Type: functional, cell-based

| EC50 | Structure (SMILES) |
| --- | --- |
| 0.37 µM | CCCNC[C@H](O)COc1ccccc1C(=O)CCc1ccccc1 |
| 0.78 µM | C[C@@H](O)COc1ccccc1[C@@H](C)O |
| 1.4 µM | C[C@H](O)COc1ccccc1[C@@H](C)O |
| 1.56 µM | C[C@H](O)COc1ccccc1[C@H](C)O |
| 0.58 µM | C[C@H](O)c1ccccc1OC[C@@H](C)O |
| 0.26 µM | CCCNC[C@@H](O)COc1ccccc1C(=O)CCc1ccccc1 |
